Active and inactive are the calls of the source.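 The calls were made as follows: active = protein phosphatase 1 activity cut by at least 70% at 50 µM; inactive = inhibition below 70%.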

This test has as its target Serine/threonine-protein phosphatase PP1-alpha catalytic subunit (Homo sapiens) (UniProt P62136). Kind of test: PP1 inhibition of phosphohistone dephosphorylation, late-stage follow-up, biochemical, radiolabel, single concentration, powder samples (AID 652228). To be noted: purified PP1alpha, 33P-phosphohistone dephosphorylation, scintillation; at 50 µM; stronger effect = higher value.

Chain of Serine/threonine-protein phosphatase PP1-alpha catalytic subunit (Homo sapiens) (P62136 whole entry, looked up): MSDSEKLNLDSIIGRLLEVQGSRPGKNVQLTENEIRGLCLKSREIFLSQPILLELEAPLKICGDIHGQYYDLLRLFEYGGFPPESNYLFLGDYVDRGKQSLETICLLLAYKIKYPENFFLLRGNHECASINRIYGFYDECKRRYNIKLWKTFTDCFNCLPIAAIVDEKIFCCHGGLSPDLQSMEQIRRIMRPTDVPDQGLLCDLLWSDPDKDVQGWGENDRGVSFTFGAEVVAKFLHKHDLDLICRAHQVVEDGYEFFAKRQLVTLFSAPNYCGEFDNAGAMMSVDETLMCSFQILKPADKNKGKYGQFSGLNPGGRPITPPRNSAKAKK

As usually defined, the inhibition is the drop in the measured response relative to a control, in per cent. As to `CCN1CCN(C(c2ccccn2)c2cc(Cl)c3cccnc3c2O)CC1` (stereo not given), the inhibition is -51.6% (inactive). Under `Oc1c(C(c2ccccn2)N2CCC(Cc3ccccc3)CC2)cc(Cl)c2cccnc12` (stereo not given) stands 57.4%. In the case of `CCOC(c1ccccn1)c1cc(Cl)c2cccnc2c1O` (stereo not given), the inhibition was 15.6% (inactive).

Consider `CN1CCN(C(c2cccnc2)c2cc(Cl)c3cccnc3c2O)CC1` (stereo not given), for which the inhibition was 10% (inactive).

Regarding `CN1CCN(C(c2ccncc2)c2cc(Cl)c3cccnc3c2O)CC1` (stereo not given), the inhibition is 4.17% (inactive).

`Oc1c(CN2CCN(c3ccccc3)CC2)cc(Cl)c2cccnc12`: the inhibition was 18.5% (inactive).

For `CN1CCN(C(c2ccccn2)c2cc(Cl)ccc2O)CC1` (stereo not given), the inhibition was 2.44% (inactive). As for `CN1CCN(C(c2ccccn2)c2cc(Cl)c3cccnc3c2O)CC1` (stereo not given), the inhibition was -38.1% (inactive). In the case of `CN1CCN(C(c2ccccc2)c2cc(Cl)c3cccnc3c2O)CC1` (stereo not given) it was 4.84% (inactive). In the case of `CN1CCN(C(c2ccccn2)c2cc(Cl)c3ccccc3c2O)CC1` (stereo not given) it was 5.68% (inactive); in that of `CC(C)(C)OC(=O)N1CCN(C(c2ccccn2)c2cc(Cl)c3cccnc3c2O)CC1` (stereo not given), 49.1%; in that of `CC1CCN(C(c2ccccn2)c2cc(Cl)c3cccnc3c2O)CC1` (stereo not given), 43.2%. Under `Oc1c(C(c2ccccn2)N2CCN(c3ccccc3F)CC2)cc(Cl)c2cccnc12` (stereo not given) stands 35.7%; under `Oc1c(CN2CCN(c3ccccn3)CC2)cc(Cl)c2cccnc12`, 12.6% (inactive); under `Oc1c(C(c2ccccn2)N2CCNCC2)cc(Cl)c2cccnc12` (stereo not given), 59%.

Source of the values: PubChem BioAssay AID652228 (The Scripps Research Institute Molecular Screening Center, 2013).
